One test concerns the target T1, human S1P3 receptor (Homo sapiens, UniProt Q99500).
T1 construct: expressed in transfected cells
As to the kind of experiment: FLIPR Ca+2 assay: ability to activate or block activation of the human S1P3 receptor in T24 cells. It is filed as cell-based. Here is the method:
Compounds were assessed for their ability to activate or block activation of the human S1P3 receptor in T24 cells stably expressing the human S1P3 receptor. Ten thousand cells/well were plated into 384-well poly-D-lysine coated plates one day prior to use. The growth media for the S1P3 receptor expressing cell line was McCoy's 5A medium supplemented with 10% charcoal-treated fetal bovine serum (FBS), 1% antibiotic-antimycotic and 400 μg/ml geneticin. On the day of the experiment, the cells were washed twice with Hank's Balanced Salt Solution supplemented with 20 mM HEPES (HBSS/Hepes buffer). The cells were then dye loaded with 2 uM Fluo-4 diluted in the HBSS/Hepes buffer with 1.25 mM Probenecid and incubated at 37° C. for 40 minutes. Extracellular dye was removed by washing the cell plates four times prior to placing the plates in the FLIPR (Fluorometric Imaging Plate Reader, Molecular Devices). Ligands were diluted in HBSS/Hepes buffer and prepared in 384-well microplates. The positive control, Sphingosine-1-Phosphate (SIP), was diluted in HBSS/Hepes buffer with 4 mg/ml fatty acid free bovine serum albumin. The FLIPR transferred 12.5 μl from the ligand microplate to the cell plate and took fluorescent measurements for 75 seconds, taking readings every second, and then for 2.5 minutes, taking readings every 10 seconds. Drugs were tested over the concentration range of 0.61 nM to 10,000 nM. Data for Ca^+2 responses were obtained in arbitrary fluorescence units and not translated into Ca^+2 concentrations. IC50 values were determined through a […] analysis using the Levenburg Marquardt algorithm.

Another test has as its system perfused porcine eyes. The following applies: by altering paracellular permeability, IOVS 45, 2263, 2004; cited from earlier work.
[1] abbreviates: T24 cells stably expressing human S1P3, antagonist activity, tested 0.61 nM to 10,000 nM, read-out: S1P3 IC50.
Setting [2] is: T-24, T24 cells stably expressing human S1P3, antagonist activity, value in parentheses, read-out: S1P3 (% eff.).

pIC50: −log10 of the molar value. Read-outs that look alike come from different tables or passages of the source.

T1 sequence (Q99500 whole entry): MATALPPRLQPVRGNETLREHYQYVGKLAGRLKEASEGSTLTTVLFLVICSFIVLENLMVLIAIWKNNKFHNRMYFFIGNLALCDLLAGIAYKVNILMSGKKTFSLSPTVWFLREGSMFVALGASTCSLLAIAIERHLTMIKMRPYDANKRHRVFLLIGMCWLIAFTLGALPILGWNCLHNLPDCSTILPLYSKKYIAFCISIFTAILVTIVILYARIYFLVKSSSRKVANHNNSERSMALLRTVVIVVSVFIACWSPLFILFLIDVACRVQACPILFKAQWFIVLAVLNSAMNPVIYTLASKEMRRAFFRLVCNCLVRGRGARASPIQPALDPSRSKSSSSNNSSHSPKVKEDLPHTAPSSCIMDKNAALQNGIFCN

As a reminder, the pIC50 is the IC50 on a negative log10 scale, so that one unit is a factor of ten. At human S1P3 receptor, `COc1ccccc1CNC(=O)c1c(C)n(Cc2cccs2)c2ccc(O)cc12` [Compound 23, 5-Hydroxy-2-methyl-1-thiophen-2-ylmethyl-1H-indole-3-carboxylic Acid, 2-methoxybenzylamide] gave a pIC50 of 5.62. The Emax on human S1P3 receptor (T-24, read-out: S1P3 (% eff.)) worked out at 23%.
The compound `Cc1c(C(=O)NCc2cc(F)cc(F)c2)c2cc(O)ccc2n1Cc1ccccc1` [Compound 3, 1-Benzyl-5-hydroxy-2-methyl-1H-indole-3-carboxylic Acid, 3,5-Difluorobenzylamide] had a pIC50 against human S1P3 receptor of 6.29. For the same compound, the Emax at human S1P3 receptor (T-24, read-out: S1P3 (% eff.)) is 53%.
Taken in the same sequence, the figures for `Cc1c(C(=O)NCc2ccc(F)c(F)c2)c2cc(O)ccc2n1Cc1ccco1` [Compound 9, 1-Furan-2-ylmethyl-5-hydroxy-2-methyl-1H-indole-3-carboxylic Acid, 3,4-Difluorobenzylamide] were 5.54 and 97%.
As to `CCc1c(C(=O)NCc2ccc(F)c(F)c2)c2cc(O)ccc2n1Cc1ccccc1` [Compound 25, 1-Benzyl-2-ethyl-5-hydroxy-1H-indole-3-carboxylic Acid, 3,4-Difluoro-benzylamide], the pIC50 at human S1P3 receptor was 6.15. The Emax at human S1P3 receptor (T-24, read-out: S1P3 (% eff.)) was 98%.
Taken in the same sequence, the figures for `Cc1c(C(=O)NCc2ccc(Cl)cc2)c2cc(O)ccc2n1Cc1cccs1` [Compound 22, 5-Hydroxy-2-methyl-1-thiophen-2-ylmethyl-1H-indole-3-carboxylic Acid, 4-Chlorobenzylamide] were 5.60 and 83%.
For the compound `CC(C)c1c(C(=O)NCc2cc(F)cc(F)c2)c2cc(O)ccc2n1Cc1ccccc1` [Compound 33, 1-Benzyl-5-hydroxy-2-isopropyl-1H-indole-3-carboxylic Acid, 3,5-difluorobenzylamide], the pIC50 against human S1P3 receptor is 6.96. In addition, the Emax at human S1P3 receptor (T-24, read-out: S1P3 (% eff.)) came out at 99%.
The compound `COc1cccc(CNC(=O)c2c(C(C)C)n(Cc3ccccc3)c3ccc(O)cc23)c1` [Compound 34, 1-Benzyl-5-hydroxy-2-isopropyl-1H-indole-3-carboxylic Acid, 3-methoxybenzylamide] gave a pIC50 at human S1P3 receptor of 6.39. The Emax on human S1P3 receptor (T-24, read-out: S1P3 (% eff.)) stood at 98%.
For `Cc1c(C(=O)NCc2cc(F)cc(F)c2)c2cc(O)ccc2n1Cc1cccs1` [Compound 11, 5-Hydroxy-2-methyl-1-thiophen-2-ylmethyl-1H-indole-3-carboxylic Acid, 3,5-Difluorobenzylamide], at human S1P3 receptor, the pIC50 was 5.74. Moreover, the Emax on human S1P3 receptor (T-24, read-out: S1P3 (% eff.)) is 67%.
Taken in the same sequence, the figures for `Cc1c(C(=O)NCc2cccc(Cl)c2)c2cc(O)ccc2n1Cc1cccs1` [Compound 21, 5-Hydroxy-2-methyl-1-thiophen-2-ylmethyl-1H-indole-3-carboxylic Acid, 3-Chlorobenzylamide] were 5.92 and 38%.
In turn, `CCc1c(C(=O)NCc2cc(F)cc(F)c2)c2cc(O)ccc2n1Cc1ccccc1` [Compound 32, 1-Benzyl-2-ethyl-5-hydroxy-1H-indole-3-carboxylic Acid 3,5-Difluoro-benzylamide] showed a negative-log IC50 (pIC50) on human S1P3 receptor of 6.55. The Emax on human S1P3 receptor (T-24, read-out: S1P3 (% eff.)) was 97%.
`Cc1c(C(=O)NCc2cc(F)cc(F)c2)c2cc(O)ccc2n1Cc1ccco1` [Compound 12, 1-Furan-2-ylmethyl-5-hydroxy-2-methyl-1H-indole-3-carboxylic Acid 3,5-Difluorobenzylamide] had a pIC50 against human S1P3 receptor of 6.02. The Emax on human S1P3 receptor (T-24, read-out: S1P3 (% eff.)) was found to be 77%.
On human S1P3 receptor, `CCCCn1c(C)c(C(=O)NCc2cccc(OC)c2)c2cc(O)ccc21` [Compound 18, 1-Butyl-5-hydroxy-2-methyl-1H-indole-3-carboxylic Acid, 3-Methoxy-benzylamide] gave a pIC50 of 5.29. Also, the Emax on human S1P3 receptor (T-24, read-out: S1P3 (% eff.)) amounted to 42%.
With `CCCCCCCCCCCCC/C=C/[C@@H](O)[C@@H](N)COP(=O)(O)O` [Compound S1P, Sphingosine-1-Phosphate], the “decrease of outflow facility” value in the test with perfused porcine eyes was greater than 30%.
`COc1cccc(CNC(=O)c2c(C)n(Cc3cccs3)c3ccc(O)cc23)c1` [Compound 17, 5-Hydroxy-2-methyl-1-thiophen-2-ylmethyl-1H-indole-3-carboxylic Acid, 3-Methoxybenzylamide] had a pIC50 against human S1P3 receptor of 6.04. The Emax on human S1P3 receptor (T-24, read-out: S1P3 (% eff.)) is 33%.
Consider `Cc1c(C(=O)NCc2ccc(F)c(F)c2)c2cc(O)ccc2n1-c1cccs1` [Compound 31, 5-Hydroxy-2-methyl-1-thiophen-2-yl-1H-indole-3-carboxylic Acid 3,4-Difluorobenzylamide], for which the pIC50 on human S1P3 receptor (setting [1]) is 5.60. At human S1P3 receptor (setting [2]), the Emax was 81%.
Turning to `Cc1c(C(=O)NCc2ccc(F)cc2)c2cc(O)ccc2n1Cc1cccs1` [Compound 19, 5-Hydroxy-2-methyl-1-thiophen-2-ylmethyl-1H-indole-3-carboxylic Acid, 4-Fluorobenzylamide], the pIC50 against human S1P3 receptor is 5.57. In addition, the Emax at human S1P3 receptor (T-24, read-out: S1P3 (% eff.)) is 72%.
On human S1P3 receptor, `CC(C)c1c(C(=O)NCc2ccc(F)c(F)c2)c2cc(O)ccc2n1Cc1ccccc1` [Compound 28, 1-Benzyl-5-hydroxy-2-isopropyl-1H-indole-3-carboxylic Acid, 3,4-Difluorobenzamide] gave a pIC50 of 7.26. In addition, the Emax at human S1P3 receptor (T-24, read-out: S1P3 (% eff.)) was found to be 98%.
Taken in the same sequence, the figures for `CCc1c(C(=O)NCc2cccc(OC)c2)c2cc(O)ccc2n1Cc1ccccc1` [Compound 26, 1-Benzyl-2-ethyl-5-hydroxy-1H-indole-3-carboxylic Acid, 3-Methoxy-benzylamide] were 5.72 and 97%.
Taken in the same sequence, the figures for `Cc1c(C(=O)NCc2cccc(F)c2)c2cc(O)ccc2n1Cc1cccs1` [Compound 14, 5-Hydroxy-2-methyl-1-thiophen-2-ylmethyl-1H-indole-3-carboxylic Acid, 3-Fluorobenzylamide] were 5.49 and 85%.
Taken in the same sequence, the figures for `Cc1ccc(CNC(=O)c2c(C)n(Cc3cccs3)c3ccc(O)cc23)cc1` [Compound 20, 5-Hydroxy-2-methyl-1-thiophen-2-ylmethyl-1H-indole-3-carboxylic Acid, 4-Methylbenzylamide] were 5.60 and 71%.
With `Cc1c(C(=O)NCc2ccc(F)c(F)c2)c2cc(O)ccc2n1-c1ccccn1` [Compound 30, 5-Hydroxy-2-methyl-1-pyridin-2-yl-1H-indole-3-carboxylic Acid 3,4-Difluoro-benzylamide], the pIC50 at human S1P3 receptor (setting [1]) was 5.82. Also, the Emax at human S1P3 receptor (setting [2]) was 23%.
Turning to `O=C(NCc1cc(F)cc(F)c1)c1c(-c2ccccc2)n(Cc2ccccc2)c2ccc(O)cc12` [Compound 48, 1-Benzyl-5-hydroxy-2-phenyl-1H-indole-3-carboxylic Acid, 3,5-Difluoro-benzylamide], the negative logarithm of the IC50 (pIC50) on human S1P3 receptor was 6.06. On human S1P3 receptor (T-24, read-out: S1P3 (% eff.)), the Emax is 98%.
On to `Cc1c(C(=O)NCc2ccc(F)c(F)c2)c2cc(O)ccc2n1-c1ccccc1` [Compound 29, 5-Hydroxy-2-methyl-1-phenyl-1H-indole-3-carboxylic Acid 3,4-Difluoro-benzylamide], for which, at human S1P3 receptor (setting [1]), the pIC50 is 5.01. Further, at human S1P3 receptor (setting [2]), the Emax was determined as 76%.
Regarding `Cc1c(C(=O)NCc2ccc(F)c(F)c2)c2cc(O)ccc2n1Cc1cccs1` [Compound 4, 5-Hydroxy-2-methyl-1-thiophen-2-ylmethyl-1H-indole-3-carboxylic Acid, 3,4-Difluorobenzylamide], the pIC50 against human S1P3 receptor is 5.77. Moreover, the Emax on human S1P3 receptor (T-24, read-out: S1P3 (% eff.)) came to 66%.
Taken in the same sequence, the figures for `CCCCn1c(C)c(C(=O)NCc2cc(F)cc(F)c2)c2cc(O)ccc21` [Compound 6, 1-Butyl-5-hydroxy-2-methyl-1H-indole-3-carboxylic Acid, 3,5-Difluoro-benzylamide] were 5.60 and 55%.
`Cc1c(C(=O)NCc2ccc(F)c(F)c2)c2cc(O)ccc2n1Cc1ccccc1` [Compound 13, 1-Benzyl-5-hydroxy-2-methyl-1H-indole-3-carboxylic Acid, 3,4-Difluoro-benzylamide] showed a pIC50 on human S1P3 receptor of 5.82. For the same compound, the Emax on human S1P3 receptor (T-24, read-out: S1P3 (% eff.)) was determined as 84%.
Turning to `Cc1c(C(=O)NCc2ccccc2)c2cc(O)ccc2n1Cc1cccs1` [Compound 15, 5-Hydroxy-2-methyl-1-thiophen-2-ylmethyl-1H-indole-3-carboxylic Acid, Benzylamide], the pIC50 against human S1P3 receptor is 5.80. Also, the Emax on human S1P3 receptor (T-24, read-out: S1P3 (% eff.)) came to 48%.

The values above are taken from patent US7737173B2, “Indole-3-carboxylic acid amide, ester, thioamide and thiol ester compounds bearing aryl or heteroaryl groups having sphingosine-1-phosphate (S1P) receptor antagonist biological activity” (Allergan, Inc., priority 2006, dated 2010).
